# Patent publication US8329676B2, “Cycloalkane-containing sphingosine 1-phosphate agonists” (University of Virginia Patent Foundation, priority 2005, dated 2012)
# Columns and labels:
# human S1P1 receptor = target: T1, human S1P1 receptor (Homo sapiens, UniProt P21453); experiment: GTPγS-35 binding assay, S1P1; format: biochemical; settings: relative to S1P (FIG. 6)
# T1 construct: expressed in transfected cells; host or cells: HEK293T (crude microsomes)
# Method: This assay illustrates agonist activation of G protein coupled receptors (GPCRs) in isolation. The assay forces expression concomitantly of a recombinant GPCR (e.g., the S1P1-5 receptor) and each of the three subunits (typically, alphai2, beta1, gamma2) of a heterotrimeric G protein in a HEK293T cell by transfecting the cell with four plasmid DNAs encoding the respective proteins. About 60 hours after transfection the cells are harvested, opened, and the nucleus discarded. This allows for the preparation of a crude microsome from the remainder. Agonist (e.g., S1P) stimulation of the receptor-G protein complex on the microsomes results in the exchange of GTP for GDP on the alpha subunit in a dose-dependent manner. To detect the GTP-bound alpha subunit, we use a GTP analog (GTPγS-35), which is a radionuclide (sulfur-35) labeled phosphothionate, that is not hydrolyzed to GDP. The microsomes with the adherent G proteins are collected by filtration and the bound GTPγS-35 quantified in a liquid scintillation counter. […] Antagonist activity is detected as rightward shifts in the agonist dose-response curve in the presence of a fixed amount of antagonist. If the antagonist behaves competitively, the affinity of the receptor/antagonist pair (K1) can be determined.
# [1] = target: T2, human S1P type 3 (S1P3) receptor (Homo sapiens, UniProt Q99500); experiment: GTPγS-35 binding assay, S1P3; format: biochemical
# T2 construct: expressed in transfected cells; host or cells: HEK293T (crude microsomes)
# T2 sequence (Q99500 whole entry): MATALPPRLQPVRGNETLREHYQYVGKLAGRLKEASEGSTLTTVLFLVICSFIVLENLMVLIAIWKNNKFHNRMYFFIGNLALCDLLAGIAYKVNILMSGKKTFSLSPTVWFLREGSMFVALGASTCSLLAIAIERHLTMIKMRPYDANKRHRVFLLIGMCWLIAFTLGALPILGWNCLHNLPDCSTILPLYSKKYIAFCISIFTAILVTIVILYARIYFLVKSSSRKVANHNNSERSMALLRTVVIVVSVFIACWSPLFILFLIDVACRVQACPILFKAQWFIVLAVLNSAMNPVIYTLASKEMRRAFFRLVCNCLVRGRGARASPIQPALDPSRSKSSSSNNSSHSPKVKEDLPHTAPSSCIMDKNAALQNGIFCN
# Method: The assay forces expression concomitantly of a recombinant GPCR (e.g., the S1P1-5 receptor) and each of the three subunits (typically, alphai2, beta1, gamma2) of a heterotrimeric G protein in a HEK293T cell by transfecting the cell with four plasmid DNAs encoding the respective proteins. About 60 hours after transfection the cells are harvested, opened, and the nucleus discarded. This allows for the preparation of a crude microsome from the remainder. Agonist (e.g., S1P) stimulation of the receptor-G protein complex on the microsomes results in the exchange of GTP for GDP on the alpha subunit in a dose-dependent manner. To detect the GTP-bound alpha subunit, we use a GTP analog (GTPγS-35), which is a radionuclide (sulfur-35) labeled phosphothionate, that is not hydrolyzed to GDP. The microsomes with the adherent G proteins are collected by filtration and the bound GTPγS-35 quantified in a liquid scintillation counter. The assay yields relative potency (EC50 values) and maximum effect (efficacy, Emax). Antagonist activity is detected as rightward shifts in the agonist dose-response curve in the presence of a fixed amount of antagonist. If the antagonist behaves competitively, the affinity of the receptor/antagonist pair (K1) can be determined.
# human S1P4 receptor = target: T3, human S1P4 receptor (Homo sapiens, UniProt O95977); experiment: GTPγS-35 binding assay, S1P4; format: biochemical; settings: FIG. 10
# T3 construct: expressed in transfected cells; host or cells: HEK293T (crude microsomes)
# T3 sequence (O95977 whole entry): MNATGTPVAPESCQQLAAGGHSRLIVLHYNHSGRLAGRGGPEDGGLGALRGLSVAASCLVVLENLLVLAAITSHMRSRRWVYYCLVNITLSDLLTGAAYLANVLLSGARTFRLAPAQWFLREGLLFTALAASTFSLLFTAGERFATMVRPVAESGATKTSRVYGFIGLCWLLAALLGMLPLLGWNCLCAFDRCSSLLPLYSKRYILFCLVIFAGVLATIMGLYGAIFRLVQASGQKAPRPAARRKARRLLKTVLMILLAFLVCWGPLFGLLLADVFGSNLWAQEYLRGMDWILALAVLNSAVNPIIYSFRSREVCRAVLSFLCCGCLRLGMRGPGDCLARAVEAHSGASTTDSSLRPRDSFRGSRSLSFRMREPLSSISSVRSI
# T3 sequence (P04899 2-355 partner limits assumed): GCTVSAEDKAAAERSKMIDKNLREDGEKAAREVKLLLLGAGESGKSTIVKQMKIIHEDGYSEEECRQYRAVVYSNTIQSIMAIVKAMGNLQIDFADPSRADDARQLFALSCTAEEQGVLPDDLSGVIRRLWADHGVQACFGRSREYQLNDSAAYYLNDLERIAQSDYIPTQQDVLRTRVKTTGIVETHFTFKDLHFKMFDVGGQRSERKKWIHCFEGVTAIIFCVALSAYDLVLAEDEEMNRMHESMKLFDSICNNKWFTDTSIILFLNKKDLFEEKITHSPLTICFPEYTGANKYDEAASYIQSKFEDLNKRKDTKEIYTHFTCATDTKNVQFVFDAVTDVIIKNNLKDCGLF
# T3 sequence (P62873 2-340 partner limits assumed): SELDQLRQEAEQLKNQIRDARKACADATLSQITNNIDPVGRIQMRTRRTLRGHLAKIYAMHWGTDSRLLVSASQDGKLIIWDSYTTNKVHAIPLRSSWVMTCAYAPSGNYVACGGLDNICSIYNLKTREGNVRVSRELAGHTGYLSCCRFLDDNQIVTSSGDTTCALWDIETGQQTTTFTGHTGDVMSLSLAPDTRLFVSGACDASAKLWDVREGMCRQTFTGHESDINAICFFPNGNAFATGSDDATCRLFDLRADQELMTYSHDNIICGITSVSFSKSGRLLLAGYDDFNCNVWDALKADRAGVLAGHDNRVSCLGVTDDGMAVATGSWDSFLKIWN
# T3 sequence (P59768 2-68 partner limits assumed): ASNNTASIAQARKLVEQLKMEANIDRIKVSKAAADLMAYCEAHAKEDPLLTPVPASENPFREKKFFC
# Text: FIG. 10 graphically illustrates the results of a broken cell GTPγ^35S binding assay for the human S1P4 receptor. Compound ‘CA5-P’ is VPC01211. Compounds CA6-P and CA4-P are the corresponding cyclohexyl and cyclobutyl compounds.
# (§1) This assay illustrates agonist activation of G protein coupled receptors (GPCRs) in isolation. The assay forces expression concomitantly of a recombinant GPCR (e.g., the S1P1-5 receptor) and each of the three subunits (typically, alphai2, beta1, gamma2) of a heterotrimeric G protein in a HEK293T cell by transfecting the cell with four plasmid DNAs encoding the respective proteins. About 60 hours after transfection the cells are harvested, opened, and the nucleus discarded. This allows for the preparation of a crude microsome from the remainder. Agonist (e.g., S1P) stimulation of the receptor-G protein complex on the microsomes results in the exchange of GTP for GDP on the alpha subunit in a dose-dependent manner. […] The microsomes with the adherent G proteins are collected by filtration and the bound GTPγS-35 quantified in a liquid scintillation counter. […] Antagonist activity is detected as rightward shifts in the agonist dose-response curve in the presence of a fixed amount of antagonist. If the antagonist behaves competitively, the affinity of the receptor/antagonist pair (K1) can be determined.
# human S1P5 receptor = target: T4, human S1P5 receptor (Homo sapiens, UniProt Q9H228); experiment: GTPγS-35 binding assay, S1P5; format: biochemical; settings: FIG. 11
# T4 construct: expressed in transfected cells; host or cells: HEK293T (crude microsomes)
# T4 sequence (Q9H228 whole entry): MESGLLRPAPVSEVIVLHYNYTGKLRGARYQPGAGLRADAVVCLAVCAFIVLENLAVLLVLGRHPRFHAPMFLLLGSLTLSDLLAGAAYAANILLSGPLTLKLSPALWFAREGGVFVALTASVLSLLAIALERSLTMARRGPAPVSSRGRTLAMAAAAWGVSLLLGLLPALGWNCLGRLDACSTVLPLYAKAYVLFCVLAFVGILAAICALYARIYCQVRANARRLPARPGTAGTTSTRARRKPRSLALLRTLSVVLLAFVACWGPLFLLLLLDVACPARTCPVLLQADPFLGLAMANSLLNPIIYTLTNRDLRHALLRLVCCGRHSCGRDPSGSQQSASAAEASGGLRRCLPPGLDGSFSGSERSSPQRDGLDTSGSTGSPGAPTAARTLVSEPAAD
# T4 sequence (P04899 2-355 partner limits assumed): as the sequence (P04899 2-355 partner limits assumed) above
# T4 sequence (P62873 2-340 partner limits assumed): as the sequence (P62873 2-340 partner limits assumed) above
# T4 sequence (P59768 2-68 partner limits assumed): as the sequence (P59768 2-68 partner limits assumed) above
# Text: FIG. 11 graphically illustrates the results of a broken cell GTPγ^35S binding assay for the human S1P5 receptor. Compound ‘CA5-P’ is VPC01211. Compounds CA6-P and CA4-P are the corresponding cyclohexyl and cyclobutyl compounds.
# as §1
# human S1P3 receptor [2] = target: T5, human S1P3 receptor (Homo sapiens, UniProt Q99500); experiment: Calcium mobilization assay in T24 cells overexpressing S1P3; format: cell-based; design: expressed in transfected cells; settings: 10 μM test compound, FIG. 15
# T5 sequence (Q99500 whole entry): as the sequence (Q99500 whole entry) above
# Method: FIG. 15 is an illustration of the result of a calcium mobilization assay in T24 cells overexpressing the human S1P3 receptor in response to […] S1P in the presence of 10 μM VPC01211.
# human S1P2 receptor [3] = target: T6, human S1P2 receptor (Homo sapiens, UniProt O95136); experiment: GTPγS-35 binding assay, S1P2; format: biochemical; design: expressed in transfected cells; host or cells: HEK293T (crude microsomes); settings: FIG. 8
# T6 sequence (O95136 whole entry): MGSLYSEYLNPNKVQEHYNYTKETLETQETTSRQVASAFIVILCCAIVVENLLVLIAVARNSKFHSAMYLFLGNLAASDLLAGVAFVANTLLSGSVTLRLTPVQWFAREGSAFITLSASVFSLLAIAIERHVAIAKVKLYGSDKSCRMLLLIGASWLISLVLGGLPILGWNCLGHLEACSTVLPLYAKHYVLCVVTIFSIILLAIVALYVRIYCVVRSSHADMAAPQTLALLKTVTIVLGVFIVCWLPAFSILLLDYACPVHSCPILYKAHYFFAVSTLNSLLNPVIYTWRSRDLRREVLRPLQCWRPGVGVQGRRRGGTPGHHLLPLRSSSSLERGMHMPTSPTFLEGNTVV
# Text: FIG. 8 graphically illustrates the results of a broken cell GTPγ^35S binding assay for the human S1P2 receptor. Compound ‘CA5-P’ is VPC01211. Compounds CA6-P and CA4-P are the corresponding cyclohexyl and cyclobutyl compounds. The ordinate represents percent GTPγ^35S binding and the abscissa represents log molar concentration of lipid.
# as §1, with “remainder.” for “remainder. Agonist (e.g., S1P) stimulation of the receptor-G protein complex on the microsomes results in the exchange of GTP for GDP on the alpha subunit in a dose-dependent manner.”
# human S1P2 receptor [4] = target: T6, human S1P2 receptor; experiment: Calcium mobilization assay, CHO-K1 cells expressing S1P2; format: cell-based; design: expressed in transfected cells; host or cells: hamster CHO-K1, clonal population; settings: FIG. 7
# Method: FIG. 7 graphically illustrates the results of a calcium mobilization assay using CHO-K1 cells expressing recombinant human S1P2 receptor. […] The ordinate represents percent maximal calcium mobilization and the abscissa represents log molar concentration of lipid.
# (§2) To measure calcium mobilization in response to agonist stimulation, cells were plated onto a 96 well plate, loaded with the calcium sensing dye Fluo-4AM and cells exposed to various concentrations of agonist for 3-5 minutes. Changes in fluorescence, which correlate with intracellular calcium mobilization, are detected using a FlexStation fluorimeter. Each agonist concentration was tested in triplicate.
# FIG. 7: CHOK1 cells transfected with S1P2 receptor DNA
# human S1P3 receptor [5] = target: T5, human S1P3 receptor; experiment: Calcium mobilization assay, CHO-K1 cells expressing S1P3; format: cell-based; design: expressed in transfected cells; host or cells: hamster CHO-K1, clonal population; settings: FIG. 9
# Method: FIG. 9 graphically illustrates the results of a calcium mobilization assay using CHO-K1 cells expressing recombinant human S1P3 receptor.
# as §2
# human S1P3 receptor [6] = target: T5, human S1P3 receptor; experiment: Schild plot of S1P dose response curves at S1P3; format: biochemical; design: expressed in transfected cells; host or cells: hamster CHO-K1, clonal population; settings: FIGS. 12-14
# Text: FIG. 12 is an illustration of a Schild plot for the results of S1P dose response curves at the human S1P3 receptor, at the indicated concentrations of test compound VPC01222.
# FIG. 13 is an illustration of a Schild plot for the results of S1P dose response curves at the human S1P3 receptor, at the indicated concentrations of test compound VPC01211.
# FIG. 14 is an illustration of a Schild plot for the results of S1P dose response curves at the human S1P3 receptor, at the indicated concentrations of test compound VPC01214.
# as §1, with “discarded.” for “discarded. This allows for the preparation of a crude microsome from the remainder. Agonist (e.g., S1P) stimulation of the receptor-G protein complex on the microsomes results in the exchange of GTP for GDP on the alpha subunit in a dose-dependent manner.”
# blood lymphocytes = experiment: Lymphopenia assay; format: in vivo, mice
# Method: Pro-drug compounds (i.e., primary alcohols such as VPC01091) are dissolved in 2% hydroxypropyl beta-cyclodextrin and introduced into mice by oral gavage at doses from 0.01 to 30 mg/kg body weight. After 24 hours (or multiples thereof), the mice are lightly anesthetized and ca. 0.1 ml of blood is drawn from the orbital sinus. The number of lymphocytes (in thousands per microliter of blood; normal is 4-11) is determined using a Hemavet blood analyzer. In the histogram showing the four isomers of VPC01091, the 100% value for the vehicle treated mouse was 7.5 at 24 hours; at 96 hours it was 5. There were three mice/group, the strain was mixed sv129×C57BL/6. Active compounds (e.g., VPC01211) are dissolved in acidified DMSO at 20 mM, and diluted 1:20 into 2% hydroxypropyl beta-cyclodextrin in water with mixing. This solution is introduced into mice by intraperitoneal (i.p.) injection at doses of 0.01-10 mg/kg body weight.
# FIG. 3 describes total blood lymphocyte count following single dose of VPC01091 or vehicle. […] Five mice per group, male, 10-11 week old sv129/C57B16 strain.
# A dose response curve for VPC01091 in the lymphopenia assay is given as FIG. 4. FIG. 4 graphically summarizes oral administration (gavage) of VPC01091 in 2% hydroxypropyl beta-cyclodextrin, 3 mice per group (same strain as in FIG. 3).
# This phosphorylation of these compounds is thought to be catalyzed in vivo by sphingosine kinase type 2 (SPHK2), which is encoded by the SPHK2 gene in mice.
# Heart rate assay = format: in vivo; settings: mice, intravenous, 3 mg/kg (FIG. 2)
# Method: In the assay the test compound was administered via IV Dosing and the vehicle was 2% cyclodextrin.
# Mice were dosed with VPC01091 (intravenous, 3 mg/kg) or vehicle (2% hydroxypropyl beta-cyclodextrin) and heart rate measured at the indicated times post dosing. Heart rate was captured in unrestrained, conscious animals using the ECGenie™ system.
# T1 sequence (P21453 whole entry): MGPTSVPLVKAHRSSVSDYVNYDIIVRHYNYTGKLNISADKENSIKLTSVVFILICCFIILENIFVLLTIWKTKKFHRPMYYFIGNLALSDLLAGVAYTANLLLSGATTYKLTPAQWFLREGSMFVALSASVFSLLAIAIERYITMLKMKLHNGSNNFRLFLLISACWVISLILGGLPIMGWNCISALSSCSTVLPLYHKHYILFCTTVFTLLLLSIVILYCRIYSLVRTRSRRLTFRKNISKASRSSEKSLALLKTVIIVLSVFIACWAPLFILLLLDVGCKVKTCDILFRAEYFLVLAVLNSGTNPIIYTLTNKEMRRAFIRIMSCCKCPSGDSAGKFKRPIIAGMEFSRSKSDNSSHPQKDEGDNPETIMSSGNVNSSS
# T1 sequence (P04899 2-355 partner limits assumed): as the sequence (P04899 2-355 partner limits assumed) above
# T1 sequence (P62873 2-340 partner limits assumed): as the sequence (P62873 2-340 partner limits assumed) above
# T1 sequence (P59768 2-68 partner limits assumed): as the sequence (P59768 2-68 partner limits assumed) above
SMILES,agonist activity at the S1P1 receptor (human S1P1 receptor),activity at the S1P3 receptor (GTPγS binding) [1],agonist activity at the S1P4 receptor (human S1P4 receptor),agonist activity at the S1P5 receptor (human S1P5 receptor),antagonism at S1P3 (rightward shift of S1P calcium response) (human S1P3 receptor [2]),activity at the S1P2 receptor (GTPγS binding) (human S1P2 receptor [3]),activity at the S1P2 receptor (calcium mobilization) (human S1P2 receptor [4]),activity at the S1P3 receptor (calcium mobilization) (human S1P3 receptor [5]),antagonism at S1P3 (rightward shifts in the S1P dose response curves) (human S1P3 receptor [6]),"lymphopenia (total blood lymphocyte count) (blood lymphocytes; mice, oral gavage, single dose, 2% hydroxypropyl beta-cyclodextrin (FIG. 3))","duration of lymphopenia (blood lymphocytes; mice, single ED95 dose)","lymphopenia in mice without a functional SPHK2 gene (blood lymphocytes; single oral dose, 24 hours (FIG. 5))",effect on heart rate (Heart rate assay)
"CCCCCCCCc1ccc(C2CCC(N)(COP(=O)(O)O)C2)cc1 (stereo not shown) [VPC01211, (1-amino-3-(4-octylphenyl)cyclopentyl)methyl dihydrogen phosphate]",partial agonists,"negative, or inverse, agonists",full agonists,partial agonists,surmountable antagonism,inactive,inactive,inactive,surmountable antagonist,,,,
"CCCCCCCCc1ccc(C2CCC(N)(CO)C2)cc1 (stereo not shown) [VPC01091, (1-amino-3-(4-octylphenyl)cyclopentyl)methanol]",,,,,,,,,,"profound, long lasting lymphopenia",lymphopenia for a week or more,no lymphopenia was observed,no effect on the heart rate
